Tested on: A7r5 cells derived from the aorta of a rat
Assay: Inhibition of serum- or PDGF-stimulated proliferation of vascular smooth muscle cells, [3H]-thymidine uptake
Format: cell-based
Description: In order to assess the inhibitory effect of a compound of the present invention on serum- or PDGF-stimulated proliferation of vascular smooth muscle cells in vitro, the compound obtained in Example 36 was tested using A7r5 cells derived from the aorta of a rat (ATCC-CRL-1444). Further, the effect was compared with that of α-tocopherol which was reported to have an inhibitory effect on proliferation of vascular smooth muscle cells (see J. Biol. Chem., 266, pp. 6188-6194 (1991)).
Using DMEM medium containing 10% FBS, the cells were placed on 96-well microtiter plates with 5×10^3 cells/0.2 ml/well and then incubated. The medium was exchanged for 2% FBS-containing DMEM medium on the third day and then for 0.2% FBS-containing DMEM medium on the fourth day from the start of the incubation. After 48-hour incubation in the 0.2% FBS-containing DMEM medium, the medium was removed, 0.2 ml of DMEM medium and the test compound were added, and the cells were stimulated with serum (2% FBS) or PDGF (PDGF-BB: human origin, available from Becton Dickinson Labware) (4 ng/ml) to proliferate. The test compound was added to the wells in the form of a solution or suspension in ethanol in amount of 1 μl well to final compound concentrations indicated in Table 2 below and the resultant ethanol concentration of 0.5% in each well. Eight hours after the stimulation, hydroxyurea was added to a final concentration of 1.5 mM to synchronize the cell cycle strictly. After additional 14-hour incubation, the medium containing hydroxyurea was removed and the cells were washed, and DMEM medium, the test compound and the proliferation stimulator were added thereto again. Further, [^3H]-thymidine (1 μCi/well; […]; available from NEN Research) was added. The [^3H]-thymidine uptake in 5 hours was measured as an indication of cell proliferation.

CCCCCC1(CCCCC)Cc2c(cc(C(C)(C)C)c(O)c2C(C)(C)C)O1 [Example 36, 4,6-Di-t-butyl-2,2-di-n-pentyl-5-hydroxy-2,3-dihydrobenzofuran]
Count by Liquid Scintillation Counter, FBS Stimulation ([3H]-thymidine uptake) (100 μM, 2% FBS, uptake in 5 hours, control 42789 ± 1063, n = 3, mean ± SD): 14147 ± 1372 CPM
Count by Liquid Scintillation Counter, PDGF Stimulation ([3H]-thymidine uptake) (100 μM, PDGF-BB 4 ng/ml, uptake in 5 hours, control 24517 ± 2370, n = 3, mean ± SD): 7881 ± 356 CPM
Inhibitory effect compared with α-tocopherol (in words) ([3H]-thymidine uptake): higher than that of α-tocopherol
Inhibition of serum- or PDGF-stimulated proliferation of vascular smooth muscle cells (in words) ([3H]-thymidine uptake, 100 μM): inhibits serum- or PDGF-stimulated proliferation of vascular smooth muscle cells

From patent US6440999B1, “Intimal thickening inhibitory agent” (Chugai Seiyaku Kabushiki Kaisha, priority 1995, dated 2002)
